From paper PMC3814616, “BRAF inhibitors suppress apoptosis through off-target inhibition of JNK signaling” (eLife, 2013)

Assays:
[1] = test system: phospho-ERK; experiment: Western blot, ERK phosphorylation in SRB1 and NHEK cells; format: cell-based, human; details: 0.6 μM (NHEK) or 1.2 μM (SRB1)
From the text: Figure 2. […] DOI: http://dx.doi.org/10.7554/eLife.00969.010 [drawing 5]

[2] = biological target: T1, MKK4 (amino acids 33-end) (Homo sapiens, UniProt P45985); experiment: In vitro kinase assay (Reaction Biology); format: biochemical; details: up to 1 μM
T1 construct: amino acids 33-end MKK4 (JNK1 substrate, ATP 0.1 μM); purchased Reaction Biology

[3] = test system: HaCaT cells; experiment: UV-induced apoptosis, FACS Annexin V+, TMRE-low; format: cell-based, human; details: 0.05 μM
[4] = test system: E1A and HRAS^G12V-transformed wild-type (WT) MEFs; experiment: Soft agar colony formation; format: cell-based, mouse; details: 0.05 μM
[5] = 150 mg PO BID in humans, ref Falchook et al., 2012; cited from earlier work
[6] = test system: A375 melanoma cell line; details: ref Greger et al., 2012; cited from earlier work
[7] = test system: E1A and HRAS^G12V-transformed Craf−/− MEFs; experiment: Soft agar colony formation; format: cell-based, mouse; details: 0.05 μM
[8] = biological target: T2, full length MAP4K5 (Homo sapiens, UniProt Q9Y4K4); experiment: In vitro kinase assay (Reaction Biology); format: biochemical; details: up to 1 μM
T2 construct: and full length MAP4K5 (MBP substrate, ATP 10 μM) (Reaction Biology); purchased Reaction Biology

[9] = test system: phospho-JNK; experiment: Western blot, UV-induced phospho-JNK in cSCC and HaCaT cell lines; format: cell-based, human; details: 0.05 μM, HaCaT and SRB1 cells
[10] = test system: SRB1 cells; experiment: UV-induced apoptosis, FACS Annexin V+, TMRE-low; format: cell-based, human; details: 0.05 μM
[11] = test system: cSCC in treated patients; details: 150 mg PO BID, ref Falchook et al., 2012, Hauschild et al., Long et al.; cited from earlier work
[12] = test system: A375 and WM35 BRAF^V600E melanoma cell lines; experiment: Growth of BRAF^V600E melanoma cell lines; format: cell-based, human; details: bioequivalent doses: dabrafenib 0.05 μM, PLX4720 1.0 μM
[13] = biological target: T3, human full-length ZAK (Homo sapiens, UniProt Q9NYL2); experiment: In vitro kinase assay (Reaction Biology); format: biochemical
T3 construct: In vitro kinase assays were performed using human full-length ZAK; purchased Reaction Biology

[14] = Serum concentration in humans; format: in vivo, human; details: 150 mg PO BID vs vemurafenib 960 mg PO BID

T2 sequence (Q9Y4K4 whole entry): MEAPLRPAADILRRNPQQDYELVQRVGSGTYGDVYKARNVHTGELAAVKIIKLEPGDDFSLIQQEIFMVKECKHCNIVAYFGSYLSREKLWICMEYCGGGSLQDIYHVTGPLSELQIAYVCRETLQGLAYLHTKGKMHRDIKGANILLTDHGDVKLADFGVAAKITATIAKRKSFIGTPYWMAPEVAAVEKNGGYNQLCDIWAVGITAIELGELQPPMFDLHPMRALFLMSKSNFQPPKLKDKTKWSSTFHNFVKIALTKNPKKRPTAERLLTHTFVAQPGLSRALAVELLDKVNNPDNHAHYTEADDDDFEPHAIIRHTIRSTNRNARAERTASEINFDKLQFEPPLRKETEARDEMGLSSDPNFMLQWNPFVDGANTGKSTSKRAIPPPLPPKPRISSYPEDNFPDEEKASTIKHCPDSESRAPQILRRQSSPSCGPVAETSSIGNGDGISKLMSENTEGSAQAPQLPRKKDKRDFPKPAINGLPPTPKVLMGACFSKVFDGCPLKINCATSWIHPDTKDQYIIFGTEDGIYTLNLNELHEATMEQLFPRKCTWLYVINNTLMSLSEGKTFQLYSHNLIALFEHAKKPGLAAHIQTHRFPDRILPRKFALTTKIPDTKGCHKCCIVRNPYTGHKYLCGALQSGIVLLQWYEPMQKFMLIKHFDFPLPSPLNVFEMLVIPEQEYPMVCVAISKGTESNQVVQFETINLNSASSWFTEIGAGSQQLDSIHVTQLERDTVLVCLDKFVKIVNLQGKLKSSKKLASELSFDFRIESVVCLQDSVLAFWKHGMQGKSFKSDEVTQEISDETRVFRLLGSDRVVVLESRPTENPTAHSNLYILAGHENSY
T1 sequence (P45985 33-399 limits assumed): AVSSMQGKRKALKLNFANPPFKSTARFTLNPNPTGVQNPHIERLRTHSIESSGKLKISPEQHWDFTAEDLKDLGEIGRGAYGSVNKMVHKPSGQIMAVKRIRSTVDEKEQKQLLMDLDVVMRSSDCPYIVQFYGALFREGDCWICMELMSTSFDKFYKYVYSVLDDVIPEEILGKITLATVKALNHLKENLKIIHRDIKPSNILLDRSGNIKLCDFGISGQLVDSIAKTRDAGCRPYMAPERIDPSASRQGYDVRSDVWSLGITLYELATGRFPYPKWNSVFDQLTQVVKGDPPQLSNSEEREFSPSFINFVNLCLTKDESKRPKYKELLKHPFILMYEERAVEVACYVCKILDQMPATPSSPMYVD

Cn1cnc2c(F)c(Nc3ccc(Br)cc3Cl)c(C(=O)NOCCO)cc21 [AZD6244]
ERK phosphorylation and activation [1]: effectively abrogated

CC(C)(C)c1nc(-c2cccc(NS(=O)(=O)c3c(F)cccc3F)c2F)c(-c2ccnc(N)n2)s1 [dabrafenib]
inhibition of MKK4 [2]: no significant inhibition | UV-induced apoptosis [3]: fails to suppress | colony formation [4]: significant growth advantage | peak serum concentrations [5]: 1.55 µM | GI50 [6]: < 10 nM | colony formation [7]: fails to confer a significant growth advantage | inhibition of MAP4K5 [8]: no significant inhibition | UV-induced phospho-JNK induction [9]: fails to suppress | UV-induced apoptosis [10]: fails to suppress | overall aggregated cSCC rate [11]: 6.1% | growth of A375 and WM35 cells [12]: suppress the growth | IC50 ([13]; MBP substrate, ATP 2.5 μM, read-out: biochemical IC50): 28.9 ± 2.23 nM | retained activity of ZAK kinase ([13]; at 0.01 μM): over 64% | peak serum concentration, fold lower than mean sustained serum levels of vemurafenib [14]: over 50 fold
